“And” between values parts separate entries of the source, which are not always exact repeats. Equal values may be shown once.
Legend:
[1] = biological target: T1, Bombyx mori EcR (VP16 fusion, switch construct CVBE) with 6XEcRE LacZ reporter (Bombyx mori, UniProt P49881); test: Z3 assay: β-galactosidase (LacZ) reporter gene fold induction in stably transformed human 293 kidney cells (clone Z3); format: cell-based; conditions: single dose 33 μM; ligand treated / DMSO treated cells
T1 construct: expressed in transfected cells; host or cells: Human 293 kidney (HEK-293) cells, retrovirally infected, clone Z3
T1 sequence (P49881 86-606 limits assumed): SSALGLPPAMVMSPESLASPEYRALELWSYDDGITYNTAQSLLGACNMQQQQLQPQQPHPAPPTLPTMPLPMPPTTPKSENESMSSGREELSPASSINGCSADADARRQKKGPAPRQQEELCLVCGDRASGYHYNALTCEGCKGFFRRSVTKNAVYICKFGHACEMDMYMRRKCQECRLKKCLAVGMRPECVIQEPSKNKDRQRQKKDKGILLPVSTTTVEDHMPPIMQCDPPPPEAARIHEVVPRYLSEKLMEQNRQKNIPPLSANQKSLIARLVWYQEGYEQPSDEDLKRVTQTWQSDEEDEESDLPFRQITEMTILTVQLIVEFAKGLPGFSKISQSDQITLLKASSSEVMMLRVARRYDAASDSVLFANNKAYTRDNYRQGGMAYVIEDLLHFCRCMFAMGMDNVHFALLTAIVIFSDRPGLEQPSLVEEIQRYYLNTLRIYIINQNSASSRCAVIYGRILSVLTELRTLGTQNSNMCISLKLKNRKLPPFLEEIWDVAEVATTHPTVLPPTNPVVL
T1 sequence (P19793 1-462 partner): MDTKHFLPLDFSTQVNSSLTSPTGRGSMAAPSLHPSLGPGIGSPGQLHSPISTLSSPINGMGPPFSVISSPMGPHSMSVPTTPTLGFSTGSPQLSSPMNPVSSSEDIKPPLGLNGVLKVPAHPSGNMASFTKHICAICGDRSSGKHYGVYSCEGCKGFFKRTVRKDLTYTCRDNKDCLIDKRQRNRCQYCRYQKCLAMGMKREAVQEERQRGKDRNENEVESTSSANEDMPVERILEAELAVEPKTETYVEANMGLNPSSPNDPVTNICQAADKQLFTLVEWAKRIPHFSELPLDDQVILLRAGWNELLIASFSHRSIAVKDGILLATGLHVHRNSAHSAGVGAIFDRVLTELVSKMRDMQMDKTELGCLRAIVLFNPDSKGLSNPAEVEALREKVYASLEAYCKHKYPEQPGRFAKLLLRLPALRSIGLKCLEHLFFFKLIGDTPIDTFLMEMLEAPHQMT
Source text: Dr. F. Gage provided a population of stably transformed cells containing CVBE and 6XEcRE as described in Suhr, S. T., Gil, E. B., Senut M. C., Gage, F. H. (1998) Proc. Natl. Acad. Sci. USA 95, 7999-804. Human 293 kidney cells, also referred to as HEK-293 cells, were sequentially infected with retroviral vectors encoding first the switch construct CVBE, and subsequently the reporter construct 6XEcRE Lac Z. The switch construct contained the coding sequence for amino acids 26-546 from Bombyx mori EcR (BE) (Iatrou) inserted in frame and downstream of the VP16 transactivation domain (VBE). A synthetic ATG start codon was placed under the control of cytomegalovirus (CVBE) immediate early promoter and flanked by long terminal repeats (LTR). The reporter construct contained six copies of the ecdysone response element (EcRE) binding site placed upstream of LacZ and flanked on both sides with LTR sequences (6XEcRE).
Dilution cloning was used to isolate individual clones. Clones were selected using 450 ug/mL G418 and 100 ng/mL puromycin. Individual clones were evaluated based on their response in the presence and absence of test ligands. Clone Z3 was selected for screening and SAR purposes.
Human 293 kidney cells stably transformed with CVBE and 6XEcRE lack were maintained in Minimum Essential Medium (Mediates, 10-010-CV) containing 10% FBS (Life Technologies, 26140-087), […] G418 (Mediates, 30-234-CR), and […] (Sigma, P-7255), at 37° C. in an atmosphere containing 5% CO2 and were subculture when they reached 75% confluence.
Z3 cells were seeded into 96-well tissue culture plates at a concentration of 2.5×10^3 cells per well and incubated at 37° C. in 5% CO2 for twenty-four hours. Stock solutions of ligands were prepared in DMSO. Ligand stock solutions were diluted 100 fold in media and 50 μL of this diluted ligand solution (33 μM) was added to cells. The final concentration of DMSO was maintained at […] in both controls and treatments.
Reporter gene expression was evaluated 48 hours after treatment of cells, β-galactosidase activity was measured using Gal Screen™ bioluminescent reporter gene assay system from Tropix (GSY1000).
Flanking both constructs are long terminal repeats, G418 and puromycin are selectable markers, CMV is the cytomegalovirus promoter, VBE is coding sequence for amino acids 26-546 from Bombyx mori EcR inserted downstream of the VP16 transactivation domain, 6×EcRE is six copies of the ecdysone response element, lacZ encodes for the reporter enzyme β-galactosidase. Suhr, S. T., Gil, E. B., Senut M. C., Gage, F. H. (1998) Proc. Natl. Acad. Sci. USA 95, 7999-804. Swevers, L., Drevet, J. R., Lunke, M. D., Iatrou, K. (1995) Insect Biochem. Mol. Biol. 25, 857-866.

[2] = biological target: T2, GAL4 DBD-CfEcR(DEF)/VP16AD-MmRXRE (Choristoneura fumiferana, UniProt O77240); test: cell-based
T2 sequence (O77240 1-513): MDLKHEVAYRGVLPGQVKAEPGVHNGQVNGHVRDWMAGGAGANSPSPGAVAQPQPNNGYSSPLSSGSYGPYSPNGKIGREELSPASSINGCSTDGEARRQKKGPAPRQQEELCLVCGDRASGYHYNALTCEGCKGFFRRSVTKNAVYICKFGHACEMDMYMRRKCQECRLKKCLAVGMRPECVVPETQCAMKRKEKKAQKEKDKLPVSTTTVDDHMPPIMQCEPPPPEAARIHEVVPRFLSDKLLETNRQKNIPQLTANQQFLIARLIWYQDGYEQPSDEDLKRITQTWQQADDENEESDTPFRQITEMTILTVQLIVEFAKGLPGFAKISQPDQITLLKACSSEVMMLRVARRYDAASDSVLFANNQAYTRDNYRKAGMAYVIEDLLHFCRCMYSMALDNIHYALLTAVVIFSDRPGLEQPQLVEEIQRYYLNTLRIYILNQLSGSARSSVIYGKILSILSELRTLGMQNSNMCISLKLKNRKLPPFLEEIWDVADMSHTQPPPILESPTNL
Source text: GAL4 DBD-CfEcR(DEF)/VP16AD-MmRXRE: The wild-type D, E, and F domains from spruce budworm Choristoneura fumiferana EcR (“CfEcR-DEF”; SEQ ID NO: 1) were fused to a GAL4 DNA binding domain (“Gal4 DBD1-147”; nucleotides 31 to 471 of SEQ ID NO: 2) and placed under the control of the SV40e promoter of pM vector (PT3119-5, Clontech, Palo Alto, Calif.). The D and E domains from Mus Musculus RXR (“MmRXR-DE”; SEQ ID NO: 10) were fused to the transactivation domain from VP16 (“VP16AD”; SEQ ID NO: 5) and placed under the control of the SV40e promoter of the pVP16 vector (PT3127-5, Clontech, Palo Alto, Calif.).
CHO cells were transienty transfected with transcription cassettes for GAL4 DBD-CfEcR(DEF) and for VP16AD-MmRXRE controlled by SV40e promoters. Stably transfected cells were selected using Hygromycin. Individually isolated CHO cell clones were transiently transfected with a GAL4 RE-luciferase reporter (pMR-Luc, Stratagene, La Jolla, Calif.). The 13B3 clone was selected using Zeocin.
(§1) Cells were trypsinized and diluted to a concentration of 2.5×10^4 cells mL. 100 μL of cell suspension was placed in each well of a 96 well plate and incubated at 37° C. under 5% CO2 for 24 h. Ligand stock solutions were prepared in DMSO and diluted 300 fold for all treatments. Dose response testing consisted of 8 concentrations ranging from 33 μM to 0.01 μM.
(§2) Luciferase reporter gene expression was measured 48 h after cell treatment using Bright-Glo™ Luciferase Assay System from Promega (E2650). Luminescence was detected at room temperature using a Dynex MLX microtiter plate luminometer.
(§3) Fold inductions were calculated from single dose testing by dividing relative light units (RLU) in ligand treated cells by RLU in DMSO treated cells. BC50s were calculated from dose response data using a three-parameter logistic model.

[3] = biological target: T3, GAL4 DBD (1-147)-CfEcR(DEF)/VP16AD-βRXREF-LmUSPEF (Choristoneura fumiferana, UniProt O77240); test: 27-63 assay: luciferase reporter gene expression in stable CHO cell clone 27-63; conditions: for EC50: 27-63 EC50 (μM), CHO clone 27-63, luciferase reporter 48 h after treatment, dose response 8 concentrations 33 μM to 0.01 μM, three-parameter logistic model; for 27-63 Rel Max FI: maximum fold induction at any concentration relative to maximum fold induction of GS™-E ligand, CHO clone 27-63
T3 sequence (O77240 191-513): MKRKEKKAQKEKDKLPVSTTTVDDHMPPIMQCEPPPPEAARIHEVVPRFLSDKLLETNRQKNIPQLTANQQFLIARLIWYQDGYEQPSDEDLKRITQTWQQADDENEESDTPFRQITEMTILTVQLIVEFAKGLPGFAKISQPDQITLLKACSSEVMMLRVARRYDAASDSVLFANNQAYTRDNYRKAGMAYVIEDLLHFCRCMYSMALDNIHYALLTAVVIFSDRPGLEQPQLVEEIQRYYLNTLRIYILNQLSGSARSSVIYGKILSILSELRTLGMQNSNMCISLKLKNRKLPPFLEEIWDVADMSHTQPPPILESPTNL
T3 sequence (P28702 296-455 partner limits assumed): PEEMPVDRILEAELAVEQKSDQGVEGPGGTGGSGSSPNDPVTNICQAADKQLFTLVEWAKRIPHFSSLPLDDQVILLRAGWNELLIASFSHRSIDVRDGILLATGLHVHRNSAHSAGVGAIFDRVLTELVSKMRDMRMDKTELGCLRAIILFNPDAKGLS
Source text: GAL4 DBD (1-147)-CfEcR(DEF)/VP16AD-βRXREF-LmUSPEF: The wild-type D, E, and F domains from spruce budworm Choristoneura fumiferana EcR (“CfEcR-DEF”; SEQ ID NO: 1) were fused to a GAL4 DNA binding domain (“Gal4 DBD1-147”; nucleotides 31 to 471 of SEQ ID NO: 2) and placed under the control of a phosphoglycerate kinase promoter (“PGK”; SEQ ID NO: 3). Helices 1 through 8 of the EF domains from Homo sapiens RXRβ and helices 9 through 12 of the EF domains of Locusta migratoria Ultraspiracle Protein (“HsRXRβ-EF-LmUSP-EF”; SEQ ID NO: 4) were fused to the transactivation domain from VP16 (“VP16AD”; SEQ ID NO: 5) and placed under the control of an elongation factor-1α promoter (“EF-1α”; SEQ ID NO: 6). Five consensus GAL4 response element binding sites (“5XGAL4RE”; comprising 5 copies of a GAL4RE comprising SEQ ID NO: 7) were fused to a synthetic TATA minimal promoter (SEQ ID NO: 8) and placed upstream of the luciferase reporter gene (SEQ ID NO: 9).
CHO cells were transiently transfected with transcription cassettes for GAL4 DBD (1-147) CfEcR(DEF) and for VP16AD βRXREF-LmUSPEF controlled by ubiquitously active cellular promoters (PGK and EF-1α, respectively) on a single plasmid. Stably transfected cells were selected by Zeocin resistance. Individually isolated CHO cell clones were transiently transfected with a GAL4 RE-luciferase reporter (pFR Luc). 27-63 clone was selected using Hygromycin.
as §1, §2, §3

Compound | Fold Induction Average, Z3 Assay (33 μM) [1] | Fold Induction Average, 13B3 Assay (33 μM) [2] | EC50 [3] | 27-63 Rel Max FI [3]
COc1cccc(C(=O)NC2(C(=O)c3cc(C)cc(C)c3)CCN(C(=O)OC(C)(C)C)CC2)c1C [Example 110] | 1 | 2 | – | –
COc1cccc(C(=O)NC(C)(C(=O)c2ccc3c(c2)OCO3)C(C)C)c1C (stereo not shown) [Example 111] | 1 | 0 | – | –
COc1cccc(C(=O)NC(C)(C(C)=O)C(C)C)c1C (stereo not shown) [Example 112] | 1 | 2 | – | –
COc1cccc(C(=O)NC(C(=O)c2cccc(C)c2)C(C)(C)C)c1C (stereo not shown) [Example 113] | 4 | 1 | – | –
COc1cccc(C(=O)C(NC(=O)c2cccc(OC)c2C)C(C)(C)C)c1 (stereo not shown) [Example 114] | 3 | 2 | – | –
COc1cccc(C(=O)NC(C(=O)c2cc(C)cc(C)c2)C(C)(C)C)c1C (stereo not shown) [Example 115] | 15 | 1 | – | –
COc1ccccc1C(=O)NC(C)(C)C(=O)c1cccc(C)c1 [Example 116] | 1 | 4 | – | –
COc1ccc(C(=O)C(C)(CC(C)C)NC(=O)c2cccc(OC)c2C)cc1 (stereo not shown) [Example 118] | 1 | 0 | – | –
COc1ccccc1C(=O)NC(C)(C)C(=O)c1cc(C)cc(C)c1 [Example 119] | 1 | 0 | – | –
Cc1cc(C)cc(C(=O)C2(NS(=O)(=O)c3ccc4c(c3)COCO4)CCCCC2)c1 [Example 179] | – | – | 6.53 µM | 0.28
Cc1ccc(S(=O)(=O)NC2(C(=O)c3cc(C)cc(C)c3)CCCC2)cc1 [Example 180] | – | – | 1.24 µM and 1.8 µM | 0.86 and 1.00
